# Results: patent publication US20100056596A1, “RESISTANCE-REPELLENT RETROVIRAL PROTEASE INHIBITORS” (Sequoia Pharmaceuticals, priority 2004, published 2010)
# Where two headings read alike, the source gives them in different places.
# Assays:
# HIV-1 isolates, Mutant 9 = experiment: In vitro drug sensitivity of HIV-1 laboratory isolates, Mutant 9; format: cell-based
# Procedure: (§1) In Vitro Drug Sensitivity of HIV-1 Laboratory Isolates to PIs
# (§2) The sensitivities of HIV-1 isolates against compounds of the invention were determined as previously described with minor modifications (Shiraska et al., Proc. Natl. Acad. Sci. USA, 92, 2398-2402 (1995)).
# HIV-1 protease Mutant 8 = HIV-1 protease Mutant 8 (Human immunodeficiency virus type 1, UniProt P04585); experiment: Ki against HIV-1 protease Mutant 8; format: biochemical
# wild type HIV-1 protease = target: T1, wild type HIV-1 protease (Human immunodeficiency virus type 1 group M subtype B, UniProt P04585); experiment: Ki against wild type (WT) HIV-1 protease; format: biochemical
# T1 construct: over 45 of the 99 amino acids of the HIV protease monomer
# HIV-1 isolates, Mutant 8 = experiment: In vitro drug sensitivity of HIV-1 laboratory isolates, Mutant 8; format: cell-based
# Procedure: as §1, §2
# HIV-1 isolates, WT = experiment: In vitro drug sensitivity of HIV-1 laboratory isolates, WT; format: cell-based
# Procedure: as §1, §2
# HIV-1 protease Mutant 9 = HIV-1 protease Mutant 9 (Human immunodeficiency virus type 1, UniProt P04585); experiment: Ki against HIV-1 protease Mutant 9; format: biochemical
# [1] = Mutant 9, read-out: IC50 Mutant 9
# [2] = Mutant 8, read-out: IC50 Mutant 8
# [3] = Human immunodeficiency virus 1, read-out: IC50 Mutant 9
# [4] = Human immunodeficiency virus 1, read-out: IC50 Mutant 8
# [5] = Human immunodeficiency virus 1, HIV-1 isolate WT
Compound,"IC50 (HIV-1 isolates, Mutant 9; [1]) [nM]",Ki (HIV-1 protease Mutant 8; Mutant 8) [nM],Ki (wild type HIV-1 protease; WT) [nM],"IC50 (HIV-1 isolates, Mutant 8; [2]) [nM]","IC50 (HIV-1 isolates, WT; WT) [nM]",Ki (HIV-1 protease Mutant 9; Mutant 9) [nM],"IC50 (HIV-1 isolates, Mutant 9; [3]) [nM]",Ki (HIV-1 protease Mutant 8; HIV-1 protease Mutant 8) [nM],Ki (wild type HIV-1 protease; wild type HIV-1 protease) [nM],"IC50 (HIV-1 isolates, Mutant 8; [4]) [nM]","IC50 (HIV-1 isolates, WT; [5]) [nM]",Ki (HIV-1 protease Mutant 9; HIV-1 protease Mutant 9) [nM],"IC50 (HIV-1 isolates, WT; Human immunodeficiency virus 1) [nM]"
CC(C)CN(C[C@@H](O)[C@H](Cc1ccccc1)NC(=O)OC1COC2OCCC12)S(=O)(=O)c1ccc2occ(CNCCc3ccccn3)c2c1 (stereo partly drawn) [Compound 117],49,< 0.3,< 0.1,27,7,< 0.1,–,–,–,–,–,–,–
CC(C)CN(CC(O)C(Cc1ccccc1)NC(=O)OC1COC2OCCC12)S(=O)(=O)c1ccc2onc(CNCC(F)(F)C(F)(F)F)c2c1 (stereo not drawn) [Compound 228],–,–,–,–,–,–,26,< 0.3,0.12,9.5,4.5,0.2,–
CCCOC(=O)NCc1noc2ccc(S(=O)(=O)N(CC(C)C)CC(O)C(Cc3ccccc3)NC(=O)OC3COC4OCCC34)cc12 (stereo not drawn) [Compound 222],–,–,–,–,–,–,45,< 0.3,< 0.1,12,3,0.19,–
CC(C)CN(CC(O)C(Cc1ccccc1)NC(=O)OC1COC2OCCC12)S(=O)(=O)c1ccc2occ(CO)c2c1 (stereo not drawn) [Compound 124],–,< 0.3,< 0.1,–,–,0.26,130,–,–,12,–,–,8.7
CC(C)CN(CC(O)C(Cc1ccccc1)NC(=O)OC1COC2OCCC12)S(=O)(=O)c1ccc2onc(CNC(=O)c3ccccc3)c2c1 (stereo not drawn) [Compound 221],–,–,–,–,–,–,16,< 0.3,< 0.1,14,7,< 0.1,–
CCCC[S+]([O-])Cc1noc2ccc(S(=O)(=O)N(CC(C)C)CC(O)C(Cc3ccccc3)NC(=O)OC3COC4OCCC34)cc12 (stereo not drawn) [Compound 208],–,–,–,–,–,–,60,< 0.3,< 0.1,36,3.9,< 0.1,–
CC(C)CN(CC(O)C(Cc1ccccc1)NC(=O)OC1COC2OCCC12)S(=O)(=O)c1ccc2occ(CNC(=O)C[S+]([O-])Cc3ccccc3)c2c1 (stereo not drawn) [Compound 120],–,< 0.3,< 0.1,–,–,0.22,150,–,–,31,–,–,20
CC(=O)OCc1noc2ccc(S(=O)(=O)N(CC(C)C)CC(O)C(Cc3ccccc3)NC(=O)OC3COC4OCCC34)cc12 (stereo not drawn) [Compound 205],–,–,–,–,–,–,68,< 0.3,< 0.1,23,10,0.23,–
"CC(C)CN(CC(O)C(Cc1ccccc1)NC(=O)OC1COC2OCCC12)S(=O)(=O)c1ccc2occc2c1 (stereo not drawn) [Compound 101, {3-[(Benzofuran-5-sulfonyl)-isobutyl-amino]-1-benzyl-2-hydroxy-propyl}-carbamic acid hexahydro-furo[2,3-b]furan-3-yl ester]",–,< 0.3,< 0.1,–,–,0.5,120,–,–,16,–,–,1.6
CC(C)CN(CC(O)C(Cc1ccccc1)NC(=O)OC1COC2OCCC12)S(=O)(=O)c1ccc2onc(CN(C)S(C)(=O)=O)c2c1 (stereo not drawn) [Compound 210],–,–,–,–,–,–,300,< 0.3,< 0.1,51,3,1.3,–
CC(C)CN(CC(O)C(Cc1ccccc1)NC(=O)OC1COC2OCCC12)S(=O)(=O)c1ccc2onc(COCC(F)(F)F)c2c1 (stereo not drawn) [Compound 246],–,–,–,–,–,–,105,< 0.3,< 0.1,6.8,2.7,1.1,–
CC(C)CN(CC(O)C(Cc1ccccc1)NC(=O)OC1COC2OCCC12)S(=O)(=O)c1ccc2onc(CNCc3ccc4occc4c3)c2c1 (stereo not drawn) [Compound 248],–,–,–,–,–,–,54,< 0.3,< 0.1,24,7.9,0.33,–
Cc1nc(CNCc2noc3ccc(S(=O)(=O)N(CC(C)C)CC(O)C(Cc4ccccc4)NC(=O)OC4COC5OCCC45)cc23)cs1 (stereo not drawn) [Compound 242],–,–,–,–,–,–,27,< 0.3,< 0.1,15,7,0.22,–
CC(C)CN(C[C@@H](O)[C@H](Cc1ccccc1)NC(=O)OC1COC2OCCC12)S(=O)(=O)c1ccc2occ(CN3CCCCC3)c2c1 (stereo partly drawn) [Compound 109],> 400,< 0.3,< 0.1,30,2,2.8,–,–,–,–,–,–,–
CC(C)CN(CC(O)C(Cc1ccccc1)NC(=O)OC1COC2OCCC12)S(=O)(=O)c1ccc2onc(CNCc3ccccc3)c2c1 (stereo not drawn) [Compound 232],–,–,–,–,–,–,80,< 0.3,< 0.1,55,7,0.11,–
CC(C)CN(CC(O)C(Cc1ccccc1)NC(=O)OC1COC2OCCC12)S(=O)(=O)c1ccc2onc(CNCCNC(=O)OC(C)(C)C)c2c1 (stereo not drawn) [Compound 236],–,–,–,–,–,–,160,< 0.3,< 0.1,18,6,0.34,–
CC(C)CN(CC(O)C(Cc1ccccc1)NC(=O)OC1COC2OCCC12)S(=O)(=O)c1ccc2onc(CSCC(F)(F)F)c2c1 (stereo not drawn) [Compound 233],–,–,–,–,–,–,> 400,< 0.3,< 0.1,36,4,3.4,–
CC(C)CN(CC(O)C(Cc1ccccc1)NC(=O)OC1COC2OCCC12)S(=O)(=O)c1ccc2onc(COC(=O)C(C)(C)C)c2c1 (stereo not drawn) [Compound 218],–,–,–,–,–,–,80,< 0.3,< 0.1,18,11,2,–
CC(C)CN(C[C@@H](O)[C@H](Cc1ccccc1)NC(=O)OC1COC2OCCC12)S(=O)(=O)c1ccc2oc(CBr)cc2c1 (stereo partly drawn) [Compound 104],230,< 0.3,< 0.1,41,8,0.41,–,–,–,–,–,–,–
COCCNCc1noc2ccc(S(=O)(=O)N(CC(C)C)CC(O)C(Cc3ccccc3)NC(=O)OC3COC4OCCC34)cc12 (stereo not drawn) [Compound 219],–,–,–,–,–,–,40,< 0.3,< 0.1,9,4,0.37,–
CC(C)CN(CC(O)C(Cc1ccccc1)NC(=O)OC1COC2OCCC12)S(=O)(=O)c1ccc2onc(CSC(C)C)c2c1 (stereo not drawn) [Compound 209],–,–,–,–,–,–,210,< 0.3,< 0.1,50,3.5,2.3,–
Cc1cc2cc(S(=O)(=O)N(CC(C)C)CC(O)C(Cc3ccccc3)NC(=O)OC3COC4OCCC34)ccc2o1 (stereo not drawn) [Compound 102],–,< 0.3,< 0.1,–,–,0.96,> 400,–,–,90,–,–,3.7
COCc1coc2ccc(S(=O)(=O)N(CC(C)C)CC(O)C(Cc3ccccc3)NC(=O)OC3COC4OCCC34)cc12 (stereo not drawn) [Compound 123],–,< 0.3,0.13,–,–,0.22,240,–,–,19,–,–,4
CC(C)CN(CC(O)C(Cc1ccccc1)NC(=O)OC1COC2OCCC12)S(=O)(=O)c1ccc2oc(CN)cc2c1 (stereo not drawn) [Compound 105],–,< 0.3,< 0.1,–,–,1.9,220,–,–,30,–,–,7
